According to patent US20250290117A1, “MOLECULAR PHENOTYPIC ANTIMICROBIAL SUSCEPTIBILITY TESTING” (priority 2024, published 2025):

Key:
Assay type in all cases: cell-based
[1] = tested on: Escherichia coli; test: Molecular phenotypic antimicrobial susceptibility test (extraction or DNA purification prior to PCR)
Method in brief: (§1)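 Semi-quantitative PCR read-out: growth was taken as resistance and its absence as sensitivity, with DNA either purified (e.g. bead-based) or amplified directly from lysed sample without extraction. Before PCR, 0.5 McFarland dilutions of incubated clinical specimens were held 12-16 hours with breakpoint-level antimicrobials in culture media, beside a drug-free control.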

[2] = tested on: Escherichia coli; test: Traditional culture-based antimicrobial susceptibility test
Method in brief: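 Susceptibility of each E. coli isolate to each antimicrobial was determined the standard way: pathogens were grown, isolated and then exposed to the agents.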

[3] = tested on: pathogens of clinical samples; test: Molecular phenotypic antimicrobial susceptibility test of clinical samples, extraction DNA purification step prior to PCR (Table 6)
Method in brief: as §1

[4] = tested on: pathogens of clinical samples; test: Molecular phenotypic antimicrobial susceptibility test of clinical samples, direct PCR without a separate DNA purification step (Table 6)
Method in brief: as §1

[5] = E. coli isolate 1, Ct at control (average) 21.238
[6] = E. coli isolate 1, at sensitive breakpoint
[7] = E. coli isolate 2, Ct at control (average) 21.270
[8] = E. coli isolate 2, at sensitive breakpoint
[9] = E. coli isolate 3, Ct at control (average) 22.0995
[10] = E. coli isolate 3, at sensitive breakpoint
[11] = E. coli, clinical sample of r10-r24
[12] = E. coli, clinical sample of r10-r24, Ct Control Avg 18.112
[13] = E. coli, clinical sample of r158-r172
[14] = E. coli, clinical sample of r158-r172, Ct Control Avg 20.146
[15] = K. aerogenes, clinical sample of r136-r150
[16] = K. aerogenes, clinical sample of r136-r150, Ct Control Avg 19.994
[17] = K. pneumoniae, clinical sample of r121-r135
[18] = K. pneumoniae, clinical sample of r121-r135, Ct Control Avg 24.272
[19] = M. morganii, clinical sample of r55-r69
[20] = M. morganii, clinical sample of r55-r69, Ct Control Avg 28.86
[21] = M. morganii, clinical sample of r70-r84
[22] = M. morganii, clinical sample of r70-r84, Ct Control Avg 27.053
[23] = P. mirabilis, clinical sample of r25-r39
[24] = P. mirabilis, clinical sample of r25-r39, Ct Control Avg 26.064
[25] = P. mirabilis, clinical sample of r40-r54
[26] = P. mirabilis, clinical sample of r40-r54, Ct Control Avg 26.987
[27] = E. coli, clinical sample of r10-r24, Ct control avg 12.97
[28] = E. coli, clinical sample of r158-r172, Ct control avg 12.894
[29] = K. aerogenes, clinical sample of r136-r150, Ct control avg 13.854
[30] = K. pneumoniae, clinical sample of r121-r135, Ct control avg […]
[31] = M. morganii, clinical sample of r55-r69, Ct control avg 12.09
[32] = M. morganii, clinical sample of r70-r84, Ct control avg 11.677
[33] = P. mirabilis, clinical sample of r25-r39, Ct control avg 11.801
[34] = P. mirabilis, clinical sample of r40-r54, Ct control avg 10.06

Compound: C[C@@H](O)[C@H]1C(=O)N2C(C(=O)O)=C(S[C@@H]3CN[C@H](C(=O)N(C)C)C3)[C@H](C)[C@H]12 [Meropenem]
- Ct at Sensitive Breakpoint [1, 5]: 33.626
- Molecular Antimicrobial Susceptibility Result [1, 6]: Sensitive (Antimicrobial wells with pathogen load detected below the control wells (typically >2 cycle thresholds later) may be reported as Sensitive)
- Ct at Sensitive Breakpoint [1, 7]: 29.525
- Molecular Antimicrobial Susceptibility Result [1, 8]: Sensitive (Antimicrobial wells with pathogen load detected below the control wells (typically >2 cycle thresholds later) may be reported as Sensitive)
- Ct at Sensitive Breakpoint [1, 9]: 23.588
- Molecular Antimicrobial Susceptibility Result [1, 10]: Sensitive (Antimicrobial wells with pathogen load detected below the control wells (typically >2 cycle thresholds later) may be reported as Sensitive)
- Traditional Culture Result ([2]; E. coli isolate 1 (Table 3)): Sensitive
- Traditional Culture Result ([2]; E. coli isolate 2 (Table 3)): Sensitive
- Traditional Culture Result ([2]; E. coli isolate 3 (Table 3)): Sensitive
- Traditional Culture Result ([2]; E. coli isolate JJ1887): Sensitive
- Molecular Antibiotic Susceptibility Result [3, 11]: Sensitive (Antimicrobial wells with pathogen load detected below the control wells (typically >2 cycle thresholds later) may be reported as Sensitive)
- Ct [3, 12]: 27.07
- Molecular Antibiotic Susceptibility Result [3, 13]: Sensitive (Antimicrobial wells with pathogen load detected below the control wells (typically >2 cycle thresholds later) may be reported as Sensitive)
- Ct [3, 14]: 30.723
- Molecular Antibiotic Susceptibility Result [3, 15]: Sensitive (Antimicrobial wells with pathogen load detected below the control wells (typically >2 cycle thresholds later) may be reported as Sensitive)
- Ct [3, 16]: 33.144
- Molecular Antibiotic Susceptibility Result [3, 17]: Sensitive (Antimicrobial wells with pathogen load detected below the control wells (typically >2 cycle thresholds later) may be reported as Sensitive)
- Ct [3, 18]: 31.816
- Molecular Antibiotic Susceptibility Result [3, 19]: Sensitive (Antimicrobial wells with pathogen load detected below the control wells (typically >2 cycle thresholds later) may be reported as Sensitive)
- Ct [3, 20]: 37.898
- Molecular Antibiotic Susceptibility Result [3, 21]: Sensitive (Antimicrobial wells with pathogen load detected below the control wells (typically >2 cycle thresholds later) may be reported as Sensitive)
- Ct [3, 22]: 36.672
- Molecular Antibiotic Susceptibility Result [3, 23]: Sensitive (Antimicrobial wells with pathogen load detected below the control wells (typically >2 cycle thresholds later) may be reported as Sensitive)
- Ct [3, 24]: 34.223
- Molecular Antibiotic Susceptibility Result [3, 25]: Sensitive (Antimicrobial wells with pathogen load detected below the control wells (typically >2 cycle thresholds later) may be reported as Sensitive)
- Ct [3, 26]: 35.503
- Molecular Antibiotic Susceptibility Result [4, 11]: Sensitive (Antimicrobial wells with pathogen load detected below the control wells (typically >2 cycle thresholds later) may be reported as Sensitive)
- Ct [4, 27]: 24.598
- Molecular Antibiotic Susceptibility Result [4, 13]: Sensitive (Antimicrobial wells with pathogen load detected below the control wells (typically >2 cycle thresholds later) may be reported as Sensitive)
- Ct [4, 28]: 30.093
- Molecular Antibiotic Susceptibility Result [4, 15]: Sensitive (Antimicrobial wells with pathogen load detected below the control wells (typically >2 cycle thresholds later) may be reported as Sensitive)
- Ct [4, 29]: 28.604
- Molecular Antibiotic Susceptibility Result [4, 17]: Sensitive (Antimicrobial wells with pathogen load detected below the control wells (typically >2 cycle thresholds later) may be reported as Sensitive)
- Ct [4, 30]: 26.606
- Molecular Antibiotic Susceptibility Result [4, 19]: Sensitive (Antimicrobial wells with pathogen load detected below the control wells (typically >2 cycle thresholds later) may be reported as Sensitive)
- Ct [4, 31]: 30.024
- Molecular Antibiotic Susceptibility Result [4, 21]: Sensitive (Antimicrobial wells with pathogen load detected below the control wells (typically >2 cycle thresholds later) may be reported as Sensitive)
- Ct [4, 32]: 29.381
- Molecular Antibiotic Susceptibility Result [4, 23]: Sensitive (Antimicrobial wells with pathogen load detected below the control wells (typically >2 cycle thresholds later) may be reported as Sensitive)
- Ct [4, 33]: 32.513
- Molecular Antibiotic Susceptibility Result [4, 25]: Sensitive (Antimicrobial wells with pathogen load detected below the control wells (typically >2 cycle thresholds later) may be reported as Sensitive)
- Ct [4, 34]: 31.805

Compound: Ampicillin/Sulbactam
- Ct at Sensitive Breakpoint [1, 5]: 19.827
- Molecular Antimicrobial Susceptibility Result [1, 6]: Resistant
- Ct at Sensitive Breakpoint [1, 7]: 21.753
- Molecular Antimicrobial Susceptibility Result [1, 8]: Resistant
- Ct at Sensitive Breakpoint [1, 9]: 20.363
- Molecular Antimicrobial Susceptibility Result [1, 10]: Resistant
- Traditional Culture Result ([2]; E. coli isolate 1 (Table 3)): Resistant
- Traditional Culture Result ([2]; E. coli isolate 2 (Table 3)): Resistant
- Traditional Culture Result ([2]; E. coli isolate 3 (Table 3)): Resistant
- Traditional Culture Result ([2]; E. coli isolate JJ1887): Resistant
- Molecular Antibiotic Susceptibility Result [3, 11]: Resistant
- Ct [3, 12]: 17.123
- Molecular Antibiotic Susceptibility Result [3, 13]: Sensitive (Antimicrobial wells with pathogen load detected below the control wells (typically >2 cycle thresholds later) may be reported as Sensitive)
- Ct [3, 14]: 29.662
- Molecular Antibiotic Susceptibility Result [3, 15]: Sensitive (Antimicrobial wells with pathogen load detected below the control wells (typically >2 cycle thresholds later) may be reported as Sensitive)
- Ct [3, 16]: 31.018
- Molecular Antibiotic Susceptibility Result [3, 17]: Resistant
- Ct [3, 18]: 23.602
- Molecular Antibiotic Susceptibility Result [3, 19]: Sensitive (Antimicrobial wells with pathogen load detected below the control wells (typically >2 cycle thresholds later) may be reported as Sensitive)
- Ct [3, 20]: 37.093
- Molecular Antibiotic Susceptibility Result [3, 21]: Sensitive (Antimicrobial wells with pathogen load detected below the control wells (typically >2 cycle thresholds later) may be reported as Sensitive)
- Ct [3, 22]: Undet
- Molecular Antibiotic Susceptibility Result [3, 23]: Sensitive (Antimicrobial wells with pathogen load detected below the control wells (typically >2 cycle thresholds later) may be reported as Sensitive)
- Ct [3, 24]: 33.809
- Molecular Antibiotic Susceptibility Result [3, 25]: Sensitive (Antimicrobial wells with pathogen load detected below the control wells (typically >2 cycle thresholds later) may be reported as Sensitive)
- Ct [3, 26]: 36.062
- Molecular Antibiotic Susceptibility Result [4, 11]: Resistant
- Ct [4, 27]: 13.482
- Molecular Antibiotic Susceptibility Result [4, 13]: Sensitive (Antimicrobial wells with pathogen load detected below the control wells (typically >2 cycle thresholds later) may be reported as Sensitive)
- Ct [4, 28]: 27.583
- Molecular Antibiotic Susceptibility Result [4, 15]: Sensitive (Antimicrobial wells with pathogen load detected below the control wells (typically >2 cycle thresholds later) may be reported as Sensitive)
- Ct [4, 29]: 29.276
- Molecular Antibiotic Susceptibility Result [4, 17]: Resistant
- Ct [4, 30]: 15.608
- Molecular Antibiotic Susceptibility Result [4, 19]: Sensitive (Antimicrobial wells with pathogen load detected below the control wells (typically >2 cycle thresholds later) may be reported as Sensitive)
- Ct [4, 31]: 26.942
- Molecular Antibiotic Susceptibility Result [4, 21]: Sensitive (Antimicrobial wells with pathogen load detected below the control wells (typically >2 cycle thresholds later) may be reported as Sensitive)
- Ct [4, 32]: 32.39
- Molecular Antibiotic Susceptibility Result [4, 23]: Sensitive (Antimicrobial wells with pathogen load detected below the control wells (typically >2 cycle thresholds later) may be reported as Sensitive)
- Ct [4, 33]: 28.121
- Molecular Antibiotic Susceptibility Result [4, 25]: Sensitive (Antimicrobial wells with pathogen load detected below the control wells (typically >2 cycle thresholds later) may be reported as Sensitive)
- Ct [4, 34]: 30.953
